Activity calls are given as the source filed them.
Experiments:
[1] = biological target: T1, Heat shock factor protein 1 (Mus musculus, UniProt P38532); experiment: HSF1 potentiators in luciferase reporter cells, confirmation, cell-based, NIH3T3, luminescence, dose retest (AID 435004); type: functional;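 also: stress induced by proteasome inhibitor MG132 added 30 min after compound; luciferase reporter driven by HSF1 response element in NIH3T3 cells; actives raise luminescence as potentiators of the MG132 stress response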
T1 sequence (P38532 whole entry): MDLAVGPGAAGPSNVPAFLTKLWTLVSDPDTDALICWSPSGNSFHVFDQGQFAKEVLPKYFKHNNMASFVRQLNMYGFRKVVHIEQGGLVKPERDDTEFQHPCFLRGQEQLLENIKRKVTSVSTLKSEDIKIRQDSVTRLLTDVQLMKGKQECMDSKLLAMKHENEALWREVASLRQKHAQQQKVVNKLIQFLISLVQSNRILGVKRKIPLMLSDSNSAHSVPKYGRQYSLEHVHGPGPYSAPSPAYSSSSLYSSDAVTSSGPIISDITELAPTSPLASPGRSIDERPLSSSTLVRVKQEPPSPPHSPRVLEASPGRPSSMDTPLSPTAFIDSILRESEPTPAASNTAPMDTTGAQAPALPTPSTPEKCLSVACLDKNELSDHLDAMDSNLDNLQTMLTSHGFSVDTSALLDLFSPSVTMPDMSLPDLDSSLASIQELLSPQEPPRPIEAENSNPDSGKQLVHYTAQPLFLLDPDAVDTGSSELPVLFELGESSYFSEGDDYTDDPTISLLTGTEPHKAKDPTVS

Protein skinhead-1 = biological target: T2, Protein skinhead-1 (Caenorhabditis elegans, UniProt P34707); type: functional
T2 sequence (P34707 whole entry): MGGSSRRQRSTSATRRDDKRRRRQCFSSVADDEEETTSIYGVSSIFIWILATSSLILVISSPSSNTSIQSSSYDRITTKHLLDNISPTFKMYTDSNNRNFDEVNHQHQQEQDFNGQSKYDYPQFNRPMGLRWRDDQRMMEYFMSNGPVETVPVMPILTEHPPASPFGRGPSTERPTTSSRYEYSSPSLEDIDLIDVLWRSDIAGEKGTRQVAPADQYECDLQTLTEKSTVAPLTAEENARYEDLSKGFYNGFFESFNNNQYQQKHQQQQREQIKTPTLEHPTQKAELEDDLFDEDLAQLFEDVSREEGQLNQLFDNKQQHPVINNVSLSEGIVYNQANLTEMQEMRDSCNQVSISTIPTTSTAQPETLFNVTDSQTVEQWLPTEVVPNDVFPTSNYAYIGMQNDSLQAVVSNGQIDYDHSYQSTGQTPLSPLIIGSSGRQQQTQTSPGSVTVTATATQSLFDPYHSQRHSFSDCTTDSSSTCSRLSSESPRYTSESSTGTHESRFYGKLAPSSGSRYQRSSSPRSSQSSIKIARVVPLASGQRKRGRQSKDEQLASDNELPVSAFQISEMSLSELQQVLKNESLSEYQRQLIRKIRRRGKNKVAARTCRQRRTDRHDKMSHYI

[2] = Luminescence Cell-Based Dose Retest to Confirm Inhibitors of Cancer Stem Cells. [Related pubchem assays (depositor defined):AID2717, AID2721]; type: functional; settings: Homo sapiens
Vero = experiment: cells; type: functional; settings: Chlorocebus sabaeus
[3] = biological target: Hepatocyte nuclear factor 4-alpha (Homo sapiens, UniProt P41235); type: functional, cell-based;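 also: biochemical luminescence-based dose-response counterscreen measuring inhibition of HNF4 dimerization, run alongside a screen for blockers of ABHD5–perilipin-5 interaction; split luciferase complementation of HNF4 fusion proteins in cell lysate measuring dimerization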
[4] = biological target: T3, Beta-2 adrenergic receptor (Homo sapiens, UniProt P07550); experiment: beta2AR agonists driving receptor internalization, dose response, cell-based, FAP fluorogen, flow cytometry, cherry pick 1 (AID 588763); type: functional
[5] = Cytotoxicity Dose Response with AM2.2-beta2AR cells for PowderSet01.; type: functional, cell-based; settings: read-out: EC50_MICROM
[6] = biological target: T3, Beta-2 adrenergic receptor; experiment: Dose response for HTS for Beta-2AR agonists via FAP method from Powderset1.; type: functional
Streptokinase A = biological target: T4, Streptokinase A (Streptococcus pyogenes serotype M1, UniProt P10520); experiment: S. pyogenes streptokinase expression inhibitors, potency, dose response, plasminogen activation absorbance, OD405 (AID 1914); type: functional, Streptococcus pyogenes M1 GAS;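 also: secreted streptokinase activity via plasminogen activation per viability signal from cell pellet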
T4 sequence (P10520 whole entry): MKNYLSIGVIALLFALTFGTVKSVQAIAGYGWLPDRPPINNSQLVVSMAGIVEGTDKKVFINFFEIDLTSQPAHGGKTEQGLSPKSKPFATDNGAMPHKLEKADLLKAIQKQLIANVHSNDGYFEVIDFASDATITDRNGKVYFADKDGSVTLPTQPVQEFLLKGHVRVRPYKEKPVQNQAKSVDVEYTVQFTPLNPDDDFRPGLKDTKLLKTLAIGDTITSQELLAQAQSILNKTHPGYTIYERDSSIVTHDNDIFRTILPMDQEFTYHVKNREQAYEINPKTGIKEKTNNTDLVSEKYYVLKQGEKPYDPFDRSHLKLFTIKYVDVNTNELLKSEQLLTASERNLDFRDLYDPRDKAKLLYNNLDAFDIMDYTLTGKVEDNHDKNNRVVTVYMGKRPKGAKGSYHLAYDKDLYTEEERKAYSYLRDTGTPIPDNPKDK

[7] = Shn3 3'UTR reporter inhibitors, dose response, cell-based, Clone20 osteoblasts, firefly luciferase, cherry-picked (AID 624132); type: functional;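 also: firefly luciferase luminescence from reporter carrying the Shn3 3'UTR in osteoblasts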
[8] = system: Streptococcus sp. 'group A'; experiment: growth inhibition of control SK(-) GAS strain, dose response, counter-screen for streptokinase expression inhibitor project, luminescence, kanamycin, BacTiterGlo, confirmation (AID 1900); type: functional, organism-based
Nonstructural protein 1 = Nonstructural protein 1 (Influenza A virus, UniProt Q194T2); type: functional, Influenza A virus (A/California/07/2009(H1N1))
[9] = control 3'UTR Renilla luciferase suppression, dose response, counter-screen for Shn3 inhibitor project, cell-based, Clone20-Shn3RL, cherry-picked (AID 624133); type: functional
[10] = biological target: Photoreceptor-specific nuclear receptor (Homo sapiens, UniProt Q9Y5X4); type: functional, cell-based;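 also: CHO-S cells with Gal4-NCOR and VP16-NR2E3 two-hybrid luciferase reporter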
INS1 = experiment: beta cell apoptosis inhibitors, cytokine rescue, dose response, luminescence, retest (AID 449756); type: functional, cell-based; settings: Rattus norvegicus;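 also: cell death triggered by IL-1 beta plus TNF-alpha plus IFN-gamma mixture; protective hits raise ATP signal compared with cytokine alone wells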
Streptococcus = experiment: Group A Streptococcus viability loss, dose response, counter-screen for streptokinase expression inhibitor project, luminescence, BacTiterGlo (AID 1915); type: functional, organism-based;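 also: potency for reduction of bacterial viability or growth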
[11] = HepG2 cell cytotoxicity, dose response, cytotoxicity control for Shn3 inhibitor project, CellTiter-Glo, cherry-picked (AID 624134); type: functional, cell-based
[12] = ARNT/TACC3 interaction disruptors, potency, confirmation, biochemical, AlphaScreen, cherry-picked samples (AID 651703); type: functional, Homo sapiens;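 also: His-tagged ARNT PAS-B domain paired with GST-TACC3 E629A dimer coactivator fragment; potency of inhibitors that break up the complex and lower AlphaScreen signal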
Caspase-6 = biological target: T5, Caspase-6 (Homo sapiens, UniProt P55212); experiment: human caspase-6 inhibitors, dose response, biochemical, VEID-R110 fluorescence, cherry-pick (AID 720632)
T5 sequence (P55212 whole entry): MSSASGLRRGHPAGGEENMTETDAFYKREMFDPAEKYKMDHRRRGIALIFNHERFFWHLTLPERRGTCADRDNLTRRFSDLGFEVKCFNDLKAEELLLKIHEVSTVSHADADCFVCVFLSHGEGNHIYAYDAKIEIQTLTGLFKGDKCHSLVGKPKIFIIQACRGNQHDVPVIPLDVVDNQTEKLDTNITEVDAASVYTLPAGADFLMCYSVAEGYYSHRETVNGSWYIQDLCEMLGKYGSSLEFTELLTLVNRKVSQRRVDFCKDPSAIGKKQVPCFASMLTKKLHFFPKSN

Interleukin-8 = biological target: T6, Interleukin-8 (Homo sapiens, UniProt P10145); experiment: Dose Response confirmation of uHTS small molecule hits for cystic fibrosis induced NFkb Inhibitors in a PAF-induced IL8 counterscreen.; type: functional; settings: read-out: IC50_Mean
T6 sequence (P10145 whole entry): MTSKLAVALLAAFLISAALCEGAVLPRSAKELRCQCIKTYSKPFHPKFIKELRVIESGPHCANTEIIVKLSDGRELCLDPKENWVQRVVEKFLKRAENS

[13] = biological target: T7, Tyrosine-protein phosphatase non-receptor type 22 (Homo sapiens, UniProt Q9Y2R2); experiment: LYP phosphatase inhibition for selectivity, dose response, selectivity assay for LMPTP inhibitor project, biochemical, fluorescence, LYP catalytic domain (AID 652006); type: functional; settings: read-out: IC50_Mean
T7 sequence (Q9Y2R2 whole entry): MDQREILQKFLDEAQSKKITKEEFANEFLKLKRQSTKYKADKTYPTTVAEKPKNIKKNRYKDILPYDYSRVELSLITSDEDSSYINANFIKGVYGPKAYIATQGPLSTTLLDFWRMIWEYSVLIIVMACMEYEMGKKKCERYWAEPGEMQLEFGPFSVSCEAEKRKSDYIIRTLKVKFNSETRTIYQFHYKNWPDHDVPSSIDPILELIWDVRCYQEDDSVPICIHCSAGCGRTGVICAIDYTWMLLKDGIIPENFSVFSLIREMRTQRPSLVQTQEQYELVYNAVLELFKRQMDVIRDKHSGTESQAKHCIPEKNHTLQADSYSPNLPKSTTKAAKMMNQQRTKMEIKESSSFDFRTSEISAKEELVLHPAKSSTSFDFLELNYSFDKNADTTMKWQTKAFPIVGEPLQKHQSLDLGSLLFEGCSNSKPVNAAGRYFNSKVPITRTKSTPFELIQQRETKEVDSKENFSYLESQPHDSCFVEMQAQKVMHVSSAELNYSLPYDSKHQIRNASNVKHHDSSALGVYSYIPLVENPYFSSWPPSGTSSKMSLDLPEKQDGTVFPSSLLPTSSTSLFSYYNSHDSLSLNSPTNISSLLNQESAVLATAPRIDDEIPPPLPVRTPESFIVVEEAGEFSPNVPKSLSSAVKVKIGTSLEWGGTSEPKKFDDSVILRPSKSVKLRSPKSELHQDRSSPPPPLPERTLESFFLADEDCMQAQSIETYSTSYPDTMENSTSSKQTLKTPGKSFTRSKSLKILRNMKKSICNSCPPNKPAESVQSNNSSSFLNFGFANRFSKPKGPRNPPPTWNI

[14] = biological target: T8, Low molecular weight phosphotyrosine protein phosphatase (Homo sapiens, UniProt P24666); type: functional; settings: read-out: IC50_Mean
T8 sequence (P24666 whole entry): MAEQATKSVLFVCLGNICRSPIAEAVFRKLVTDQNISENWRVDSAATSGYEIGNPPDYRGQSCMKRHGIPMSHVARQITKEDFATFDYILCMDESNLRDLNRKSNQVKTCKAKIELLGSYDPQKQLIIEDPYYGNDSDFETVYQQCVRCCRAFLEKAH

[15] = biological target: T8, Low molecular weight phosphotyrosine protein phosphatase; type: functional; settings: read-out: IC50_Mean; remark: listed apart in the source
[16] = biological target: 26S proteasome non-ATPase regulatory subunit 14 (Homo sapiens, UniProt O00487); experiment: inhibition of proteasome subunit RPN11 – biochemical, fluorescence polarization, uHTS hits, confirmation (AID 602368); type: functional
[17] = biological target: T9, Small ubiquitin-related modifier 1 (Homo sapiens, UniProt P63165); experiment: inhibitors of SUMO1 partner interactions, dose response, biochemical, FRET (AID 624383); type: functional; settings: read-out: IC50_Mean
[18] = biological target: 72 kDa type IV collagenase (Homo sapiens, UniProt P08253); experiment: Dose Response validation of uHTS RPN11 inhibitor hits using a MMP-2 Fluorescence assay.; type: functional
[19] = biological target: T9, Small ubiquitin-related modifier 1; experiment: inhibitors of SUMO1 peptide binding, dose response, biochemical, fluorescence polarization, uHTS hits (AID 624382); type: functional; settings: read-out: IC50_Mean
Prothrombin = Prothrombin (Bos taurus, UniProt P00735); experiment: thrombin inhibition, dose response, biochemical, fluorescence polarization, uHTS hits (AID 602369); type: functional
[20] = cytotoxicity toward NIH3T3 fibroblasts, dose response, counter-screen, cell-based, ATP luminescence, mouse fibroblasts (AID 2010); type: functional;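 also: cells exposed to compound for about 90 hours before reading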
[21] = biological target: ADP-ribosylation factor GTPase-activating protein 1 (Rattus norvegicus, UniProt Q62848); experiment: Fluorescence polarization-based biochemical high throughput dose response screening assay to identify inhibitors of ADP-ribosylation factor GTPase activating protein 1 (ARFGAP1).; type: functional
[22] = inhibitors of intracellular T. cruzi replication, confirmation, NIH3T3 host cells, beta-gal luminescence (AID 2044); type: functional, cell-based;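 also: intracellular parasites grown in NIH/3T3 mouse fibroblasts as host cells; luminescent beta-galactosidase reporter signal from transgenic T. cruzi replicating inside host cells; inhibitors lower the luminescence signal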
[23] = biological target: T10, Mitochondrial peptide methionine sulfoxide reductase (Bos taurus, UniProt P54149); type: functional;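 also: absorbance read-out, biochemical high-throughput dose-response screen for MsrA inhibitors, confirmatory; recombinant bovine MsrA coupled to E. coli TrxB with NADPH and selenocystamine; potency is for inhibitors of MsrA activity on DMSO substrate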
T10 sequence (P54149 whole entry): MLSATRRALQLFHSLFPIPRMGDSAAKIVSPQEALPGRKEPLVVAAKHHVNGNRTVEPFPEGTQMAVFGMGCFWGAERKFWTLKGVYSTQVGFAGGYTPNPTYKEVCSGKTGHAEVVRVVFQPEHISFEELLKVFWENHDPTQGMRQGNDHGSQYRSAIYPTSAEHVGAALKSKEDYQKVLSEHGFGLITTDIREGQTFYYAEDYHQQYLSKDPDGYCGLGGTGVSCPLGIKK

T3 sequence (P07550 whole entry): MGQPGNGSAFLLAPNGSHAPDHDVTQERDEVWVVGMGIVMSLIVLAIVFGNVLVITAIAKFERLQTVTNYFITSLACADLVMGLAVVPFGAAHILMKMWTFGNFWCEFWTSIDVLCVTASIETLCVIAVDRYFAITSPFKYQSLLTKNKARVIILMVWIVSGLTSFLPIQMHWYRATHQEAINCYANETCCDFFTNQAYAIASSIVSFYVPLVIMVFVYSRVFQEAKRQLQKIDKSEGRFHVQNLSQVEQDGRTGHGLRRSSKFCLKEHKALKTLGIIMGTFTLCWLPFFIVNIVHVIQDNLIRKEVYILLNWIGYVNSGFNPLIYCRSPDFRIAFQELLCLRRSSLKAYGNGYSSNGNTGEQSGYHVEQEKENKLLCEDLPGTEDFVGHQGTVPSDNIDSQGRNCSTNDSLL
T9 sequence (P63165 whole entry): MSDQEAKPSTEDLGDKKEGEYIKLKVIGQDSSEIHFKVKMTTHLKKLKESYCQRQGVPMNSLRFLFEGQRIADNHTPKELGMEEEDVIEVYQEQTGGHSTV
Hepatocyte nuclear factor 4-alpha, sequence (P41235 whole entry, the tested form may be a part): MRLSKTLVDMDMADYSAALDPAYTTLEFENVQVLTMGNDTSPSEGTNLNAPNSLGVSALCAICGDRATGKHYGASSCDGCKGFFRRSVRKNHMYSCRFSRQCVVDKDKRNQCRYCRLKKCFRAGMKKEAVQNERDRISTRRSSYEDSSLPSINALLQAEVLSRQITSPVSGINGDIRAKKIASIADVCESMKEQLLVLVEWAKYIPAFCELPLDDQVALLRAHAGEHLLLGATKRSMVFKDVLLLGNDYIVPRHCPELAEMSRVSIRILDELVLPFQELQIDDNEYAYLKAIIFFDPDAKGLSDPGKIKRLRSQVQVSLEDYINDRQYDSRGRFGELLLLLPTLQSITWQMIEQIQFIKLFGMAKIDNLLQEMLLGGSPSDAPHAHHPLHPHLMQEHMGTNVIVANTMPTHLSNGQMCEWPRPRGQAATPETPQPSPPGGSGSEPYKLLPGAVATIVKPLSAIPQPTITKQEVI
ADP-ribosylation factor GTPase-activating protein 1, sequence (Q62848 whole entry): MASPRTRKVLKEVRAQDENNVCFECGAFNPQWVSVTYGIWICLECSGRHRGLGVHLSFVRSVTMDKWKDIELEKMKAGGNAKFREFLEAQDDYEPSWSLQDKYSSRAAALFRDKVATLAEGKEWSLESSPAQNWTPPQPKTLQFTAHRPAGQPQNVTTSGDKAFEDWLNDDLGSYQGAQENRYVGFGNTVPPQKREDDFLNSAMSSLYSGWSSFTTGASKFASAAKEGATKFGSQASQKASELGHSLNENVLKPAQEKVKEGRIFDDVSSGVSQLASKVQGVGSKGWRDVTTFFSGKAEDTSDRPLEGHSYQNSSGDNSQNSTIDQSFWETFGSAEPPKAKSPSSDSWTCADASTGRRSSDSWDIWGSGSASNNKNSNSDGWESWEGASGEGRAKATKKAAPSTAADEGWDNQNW
72 kDa type IV collagenase, sequence (P08253 whole entry): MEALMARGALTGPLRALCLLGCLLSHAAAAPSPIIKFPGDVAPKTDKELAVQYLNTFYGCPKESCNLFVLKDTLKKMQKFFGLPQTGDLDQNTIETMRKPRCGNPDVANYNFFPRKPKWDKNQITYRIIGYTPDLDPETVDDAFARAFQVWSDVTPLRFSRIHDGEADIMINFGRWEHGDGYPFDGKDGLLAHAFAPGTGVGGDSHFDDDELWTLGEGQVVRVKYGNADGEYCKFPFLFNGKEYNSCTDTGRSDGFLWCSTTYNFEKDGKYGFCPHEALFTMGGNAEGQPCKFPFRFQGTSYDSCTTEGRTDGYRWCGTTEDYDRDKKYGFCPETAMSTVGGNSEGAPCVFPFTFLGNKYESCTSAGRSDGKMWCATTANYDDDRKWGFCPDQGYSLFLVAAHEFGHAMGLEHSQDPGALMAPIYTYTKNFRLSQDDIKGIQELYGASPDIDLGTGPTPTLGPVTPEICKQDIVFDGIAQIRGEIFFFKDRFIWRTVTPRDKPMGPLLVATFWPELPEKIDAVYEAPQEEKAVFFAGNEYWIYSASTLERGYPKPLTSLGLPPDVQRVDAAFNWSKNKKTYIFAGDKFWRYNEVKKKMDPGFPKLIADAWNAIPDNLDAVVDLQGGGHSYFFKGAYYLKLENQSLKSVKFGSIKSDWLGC
26S proteasome non-ATPase regulatory subunit 14, sequence (O00487 whole entry): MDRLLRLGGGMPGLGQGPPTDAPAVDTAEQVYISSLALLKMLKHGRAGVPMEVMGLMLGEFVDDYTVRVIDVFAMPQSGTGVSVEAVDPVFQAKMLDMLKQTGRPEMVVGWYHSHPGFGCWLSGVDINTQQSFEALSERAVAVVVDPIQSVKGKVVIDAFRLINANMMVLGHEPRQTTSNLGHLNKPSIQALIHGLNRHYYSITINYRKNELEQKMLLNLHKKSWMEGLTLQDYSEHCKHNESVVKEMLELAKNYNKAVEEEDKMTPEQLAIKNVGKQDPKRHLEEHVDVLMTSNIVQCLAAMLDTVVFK
Nonstructural protein 1, sequence (Q194T2 whole entry): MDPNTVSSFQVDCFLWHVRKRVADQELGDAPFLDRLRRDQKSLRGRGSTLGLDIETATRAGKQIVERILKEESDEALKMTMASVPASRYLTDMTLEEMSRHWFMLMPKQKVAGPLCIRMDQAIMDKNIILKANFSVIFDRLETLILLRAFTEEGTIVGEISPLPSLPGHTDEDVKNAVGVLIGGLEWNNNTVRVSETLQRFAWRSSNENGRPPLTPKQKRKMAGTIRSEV
Photoreceptor-specific nuclear receptor, sequence (Q9Y5X4 whole entry, the tested form may be a part): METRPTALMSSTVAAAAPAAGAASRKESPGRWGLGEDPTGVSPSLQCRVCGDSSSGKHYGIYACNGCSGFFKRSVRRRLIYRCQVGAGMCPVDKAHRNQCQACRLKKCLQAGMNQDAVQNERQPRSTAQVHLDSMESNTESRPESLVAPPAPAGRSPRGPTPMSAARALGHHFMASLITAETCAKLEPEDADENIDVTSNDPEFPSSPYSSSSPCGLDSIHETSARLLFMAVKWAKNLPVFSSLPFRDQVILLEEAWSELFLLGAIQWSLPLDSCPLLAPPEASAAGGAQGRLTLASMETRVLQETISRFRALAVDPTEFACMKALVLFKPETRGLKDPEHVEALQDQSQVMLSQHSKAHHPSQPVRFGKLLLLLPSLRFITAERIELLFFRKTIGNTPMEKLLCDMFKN

O=C(/C=C/Sc1ccccc1)c1ccc(Cl)cc1
EC50 [1]: 9.05 µM (active) | IC50 (Protein skinhead-1): 31 µM (active) | AC50 [2]: 3.46 µM (active) | CC50 (Vero): 14.2 µM (active) | IC50 [3]: 6.31 µM (active)

O=C(Nc1ccc(S(=O)(=O)N2CCCCC2c2cccnc2)cc1)c1c(F)cccc1F (configuration not stated)
EC50 [4]: 2.46 µM (active) | EC50 [5]: 5.39 µM (active) | EC50 [6]: 0.119 µM (active)

CC(C)(C)Nc1nc(-c2ccccn2)nc2ccccc12
EC50 (Streptokinase A): > 150 µM (not active) | AC50 [7]: 1.86 µM (active) | EC50 [8]: 2.48 µM (active) | IC50 (Nonstructural protein 1): 12.2 µM (active) | AC50 [9]: 1.42 µM (active) | IC50 [10]: 3.88 µM (active) | AC50 (INS1): 2.06 µM (active) | EC50 (Streptococcus): 5.93 µM (active) | AC50 [11]: > 70 µM (inactive)

CC1CCN(C(=O)COC(=O)c2ccc([N+](=O)[O-])o2)CC1
AC50 [12]: 122 µM (active) | AC50 (Caspase-6): 18.3 µM (active)

COc1cncc(-c2cnc3sc(NCCc4ccccn4)nn23)c1
IC50 (Interleukin-8): 9.33 µM (active)

C/C(=N\NC(=O)c1ccc(OC2OCCOC2Oc2ccc(C(=O)N/N=C(\C)c3ccncc3)cc2)cc1)c1ccncc1 (configuration not stated)
IC50 [13]: 13.6 µM (active) | IC50 [14]: > 80 µM (inactive) | IC50 [15]: 13.2 µM (active) | IC50 [16]: 9.62 µM (active) | IC50 [17]: 8.52 µM (active) | IC50 [18]: > 100 µM (inactive) | IC50 [19]: > 66.6 µM (inactive) | IC50 (Prothrombin): 41 µM (active)

N#CCCn1cc(/C=N/NC(N)=S)c(-c2ccc(-c3ccccc3)cc2)n1
EC50 [20]: 9.69 µM (active) | IC50 [21]: 128 µM (inactive) | EC50 [22]: 0.924 µM (active)

C/C(=N/O)c1cc(C(C)(C)C)c(O)c(C(C)(C)C)c1
IC50 [23]: 155 µM (inactive)
